Results taken from PubChem BioAssay (NCI).
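Method: 48-hour compound exposure of cells in 96-well plates, five concentrations, linear interpolation of endpoints. Abbreviation: GI50, concentration required for 50% inhibition of growth. TGI: concentration producing complete growth inhibition.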

What was measured:
Experiment in all cases: NCI-60 cell line screen, 48 h
A549 NSCLC = system: A549 NSCLC
HCC-2998 colon = system: HCC-2998 colon
HCT-15 colon = system: HCT-15 colon
K-562 leukemia = system: K-562 leukemia
LOX IMVI melanoma = system: LOX IMVI melanoma
MDA-MB-435 = system: MDA-MB-435
NCI-H23 lung = system: NCI-H23 lung
RPMI-8226 leukemia = system: RPMI-8226 leukemia
SNB-75 CNS = system: SNB-75 CNS
SR leukemia = system: SR leukemia

SMILES	TGI (A549 NSCLC) [µM]	TGI (HCC-2998 colon) [µM]	TGI (HCT-15 colon) [µM]	TGI (K-562 leukemia) [µM]	TGI (LOX IMVI melanoma) [µM]	TGI (MDA-MB-435) [µM]	TGI (NCI-H23 lung) [µM]	TGI (RPMI-8226 leukemia) [µM]	TGI (SNB-75 CNS) [µM]	TGI (SR leukemia) [µM]	GI50 (A549 NSCLC) [µM]	GI50 (HCC-2998 colon) [µM]	GI50 (HCT-15 colon) [µM]	GI50 (K-562 leukemia) [µM]	GI50 (LOX IMVI melanoma) [µM]	GI50 (MDA-MB-435) [µM]	GI50 (NCI-H23 lung) [µM]	GI50 (RPMI-8226 leukemia) [µM]	GI50 (SNB-75 CNS) [µM]	GI50 (SR leukemia) [µM]
CCOC(=O)C(C)(C)C(O)C(C)C (stereo not given)	> 100	> 100	> 100	> 100	> 100	> 100	> 100	> 100	> 100	> 100	–	–	–	–	–	–	–	–	–	–
CCc1ccc2c(c1)N(CCO)C1=C(C(=O)OC1)C2c1cccc(Cl)c1 (stereo not given)	18.6	9.25	17.9	23.9	17.7	0.787	20.9	52.6	14.6	> 100	0.784	1.35	0.605	0.485	0.684	0.195	0.923	3.38	0.395	0.445
COC(=O)/C=C/c1cn(C(C)=O)c2ccc(Br)cc12	> 100	64.8	> 100	> 23	> 77.9	> 100	> 100	> 100	55.2	> 100	33.8	21.8	23.4	0.967	17.9	29	27.9	19	16.1	32.5
COc1ccc(-c2nc(N3CCN(C(=O)C4CCCCC4)CC3)c3c4c(sc3n2)CCCC4)cc1	> 100	> 100	> 100	> 100	> 100	> 100	> 100	> 100	33.9	> 100	50.1	> 100	> 100	> 100	> 100	> 100	63.1	22	14.1	> 100
COc1cc(-c2nn(-c3cccc(NC(=O)c4ccc(N5CCOCC5)c(C(F)(F)F)c4)c3)cc2-c2ccncc2)ccc1Cl	> 36.9	7	> 100	> 100	6.2	0.0827	34.2	> 100	0.572	> 100	0.287	1.5	0.226	0.0555	0.371	0.0252	0.826	0.269	0.0818	0.0369
C/C(=C\COc1c2c(cc3c1CCO3)OC1(C=C2)OC(CC/C(C)=C/COc2c3ccoc3cc3oc(=O)ccc23)C(C)(C)O1)CCC(O)C(C)(C)O (stereo not given)	> 100	> 100	> 100	> 100	> 100	> 100	> 100	23.2	> 100	> 100	13.3	89.6	85	3.82	28.2	36.4	33.7	2.95	21.1	5.04
O=c1c2ccccc2c2ccccc2c(=O)n1Cc1ccc2c(c1)OCO2	> 100	> 100	> 100	> 28	> 100	55.7	> 71.8	> 67.4	> 93.6	84.5	–	–	–	–	–	–	–	–	–	–
COC(=O)[C@H](Cc1ccc(O)cc1)NC(=O)[C@@H](OC)[C@@H]1Cc2cc3cc(OC4CC(OC5CC(O)C(O)C(C)O5)C(O)C(C)O4)c(C)c(O)c3c(O)c2C(=O)[C@H]1OC1CC(OC2CC(OC3CC(C)(O)C(O)C(C)O3)C(O)C(C)O2)C(O)C(C)O1 (stereo not given in full)	> 25	0.758	> 25	> 25	> 25	2.33	> 25	2.02	1.08	> 25	0.15	0.172	1.95	0.116	0.0316	0.0931	0.104	0.0417	0.0773	0.0163
C=C(CN1CCN(c2cccc(C(F)(F)F)n2)CC1)c1ccc(C(=S)Nc2ccccc2N)cc1	> 100	> 100	> 100	4.48	17.6	> 100	8.85	–	> 100	6.49	3.32	5.74	4.11	1.57	3.72	3.77	2.81	–	5.71	2.44
Cc1ncsc1-c1ccc(CNC(=O)[C@@H]2C[C@@H](O)CN2C(=O)[C@@H](NC(=O)C2(C#N)CC2)C(C)(C)C)cc1	> 100	> 100	> 100	–	> 100	> 100	> 100	> 100	> 100	> 100	> 100	> 100	> 100	–	> 100	> 100	> 100	62.4	33.7	55.4
C=CN(C)S(C)(=O)=O	> 100	> 100	> 100	> 100	> 100	> 100	–	> 100	> 100	> 100	> 100	> 100	> 100	> 100	> 100	> 100	–	> 100	> 100	> 100
O=c1c2c3c(sc2nc(N/N=C/c2ccc(Br)cc2)n1Cc1ccccc1)CCCC3	> 100	> 100	> 100	> 100	> 100	> 100	> 100	–	> 100	> 100	46.2	> 100	8.98	4.1	19.3	44.1	> 100	–	3.33	4.98
O=C(NO)c1ccc(Cn2c(=O)n(-c3ccccc3F)c(=O)c3ccccc32)cc1	7.83	2.96	4.42	> 100	3.2	3.26	–	18.9	4.78	> 100	2.74	1.42	1.92	2.62	1.71	1.55	–	1.19	1.45	1.56
